For one data set, the system named is human pancreatic cancers. Put plainly: Inhibition of human pancreatic cancers. To be noted: in particular cancers rich in glucocorticoid receptors.
For a further data set, the system named is glucocorticoid activity. As to the kind of experiment: Glucocorticoid activity (general statements).
The next data set deals with thymus. As to the kind of experiment: Thymus weight of rats treated topically in the corneal angiogenesis study. It is filed as in vivo, rat. The method, then:
(§1) The ability of etianic acids to inhibit angiogenesis was evaluated in vivo in rats. Each animal had its corneas cauterized with silver nitrate/potassium nitrate. The cauterization causes the normally avascular cornea to undergo neovascularization (anglogenesis). This animal model, refined by Proia et al., Lab. Invest. 58: 473-479 (1988) and now a well-established assay, quantifies corneal neovascularization by computerized image analysis. […] Ophthalmol. Vis. Science 30: 1588-1593 (1989), and can provide a more definitive evaluation of angiostatic activity than models using the chorioallantoic membrane in the chick egg or the rabbit eye model. See Proia et al., Exp. Eye Res. (in press--to be published in Vol. 57 in 1993).
(§2) Female rats were obtained from Zivic-Miller Laboratories, Zelienople, Pa. There were 6-8 rats included in each treatment group. Neovascularization was induced by cauterizing both corneas of each anesthetized rat; this was performed by applying the tip of a silver nitrate/potassium nitrate to the cornea for 5-7.5 seconds.
(§3) Steroids were formulated in vehicle containing 10 percent Tween 20 (polyoxyethylene sorbitan monolaurate) dissolved in 0.9 percent saline with percent (by volume) 0.2M tris (hydroxymethyl)aminomethane, pH 7.4. The steroids dissolved readily when the pH was adjusted to 7.0-8.0 with NaOH or KOH. All steroids were tested at a concentration of 1 percent; additionally, some formulations were also tested at 0.01 percent, 0.1 percent, and 2.5 percent. Three 10 μl drops of each concentration of steroid were applied topically to each cauterized cornea four times per day (8:00 a.m., noon, 4:00 p.m., and 8:00 p.m.).
(§4) After four days of treatment, the animals were euthanized by rapid asphyxiation in a carbon dioxide chamber. The vasculature was perfused with a mixture of 10 percent india ink/11 percent gelatin/lactated Ringer's solution. Corneal tissue was dissected and prepared as flat mounts. During dissection, the corneas were examined with a dissecting microscope, and the degree of neovascularization was graded numerically from 1+ to 4+. After dehydration with alcohols, cleaning with xylene, mounting, and drying, the area of each cornea and the length of blood vessels were determined by computerized image analysis.

For data set [1], the system named is corneal neovascularization. As to the kind of experiment: Inhibition of corneal neovascularization in cauterized rat corneas, topical application four times per day for four days. Format: in vivo. To be noted: for Neovascularization (percent of the corneal area occupied by blood vessels): mean ± S.D.; for Percent Inhibition of neovascularization: versus vehicle. The method, then: as §1, §2
The corneal tissues were treated with steroid formulations.
Steroids were formulated in vehicle containing 10 percent Tween 20 (polyoxyethylene sorbitan monolaurate) dissolved in 0.9 percent saline with percent (by volume) 0.2M tris (hydroxymethyl)aminomethane, pH 7.4. […] All steroids were tested at a concentration of 1 percent; additionally, some formulations were also tested at 0.01 percent, 0.1 percent, and 2.5 percent. Three 10 μl drops of each concentration of steroid were applied topically to each cauterized cornea four times per day (8:00 a.m., noon, 4:00 p.m., and 8:00 p.m.).
as §4
Statistical evaluation of inhibition of corneal neovascularization by each concentration of drug was evaluated using Mann Whitney U Tests (one-tailed; P<0.05=significant difference). […] In all cases, however, image analysis was used to quantitatively confirm visual observations.

In data set [2] the test system is Kirsten murine sarcoma virus transformed human skin fibroblasts. To be noted: cited from earlier work.
A short description of data set [3]: Body weight of rats treated topically in the corneal angiogenesis study. To be noted: topical, all concentrations. It is filed as in vivo, rat. As for the experimental part:
as §1, §2, §3
After four days of treatment, the animals were euthanized by rapid asphyxiation in a carbon dioxide chamber. The vasculature was perfused with a mixture of 10 percent india ink/11 percent gelatin/lactated Ringer's solution. […] After dehydration with alcohols, cleaning with xylene, mounting, and drying, the area of each cornea and the length of blood vessels were determined by computerized image analysis.

In data set [4] the test system is corneal neovascularization. Put plainly: Corneal angiogenesis inhibition, subcutaneous injection once/day. Format: in vivo, rat. As for the experimental part: as §1, §2, §4
The ability of compounds 2013, 518, and 513 to inhibit corneal angiogenesis when injected subcutaneously once/day to was assessed on rats prepared as described in Example 8. Dexamethasone was used as a positive control.

The next data set has as its system rat corneas. As to the kind of experiment: Histological study of steroid-treated cauterized corneal tissue. Format: in vivo. To be noted: 1 percent topical QID. The method, then:
A histological study was performed in which either vehicle or 1 percent compound 2013 (17β-carboxylic acid derivative of prednisolone) was applied topically (QID) to rat corneas cauterized as described in Example 23. Five rats were included in each experimental group. The rats were killed either one or four days after treatment.
Histological sections were prepared through the cautery site.

In data set [5] the test system is Dunning R3327 (PAP) prostatic adenocarcinoma. To be noted: in vitro; cited from earlier work.
The test system of a further data set is MCF-7 breast cancer. To be noted: in vitro; cited from earlier work.

Take `C[C@]12C=C(C(=O)O)C(=O)C=C1CC[C@@H]1[C@@H]2[C@@H](O)C[C@@]2(C)[C@H]1CC[C@]2(C)O` [2-carboxyl-11β,17β-dihydroxy-17α-methyl-1,4-androstadien-3-one]: the “Inhibition of human pancreatic cancers (in words)” value in the data set with human pancreatic cancers is “inhibits certain human pancreatic cancers, and in particular inhibits those cancers rich in glucocorticoid receptors”. For the same compound, the “Glucocorticoid activity (in words)” value in the data set on glucocorticoid activity is “anti-glucocorticoid”.
Turning to `C[C@]12C=CC(=O)C=C1CC[C@@H]1[C@@H]2[C@@H](O)C[C@@]2(C)[C@H]1CC[C@]2(O)C(=O)O` [Compound 2013, 17β-carboxyl-11β,17α-dihydroxy-3-oxo-1,4-androstadiene], the “Change in thymus weight (in words)” value in the data set on thymus (topical 0.1 percent) is reported as “no significant effect on thymus weight”. For the same compound, in the data set on thymus (topical 1 percent), the “Decrease of thymus weight from control” value stood at 27%. Further, the Thymus weight in the data set with thymus (topical 1 percent, four days) is on record as 0.207±0.035 gm. Besides, the “Neovascularization (percent of the corneal area occupied by blood vessels)” value turned out to be 26.2 ± 6.3% in [1] (Experiment A, topical 0.01%); 13.9 ± 7.3% in data set [1] (Experiment A, topical 0.1%); 9.8 ± 2.0% in [1] (Experiment A, topical 1.0%); 18.3 ± 4.0% in data set [1] (Experiment B, topical 0.01%); 14.6 ± 6.8% in [1] (Experiment B, topical 0.1%); 16.0 ± 3.6% in data set [1] (Experiment B, topical 1.0%). Moreover, the “Percent Inhibition of neovascularization” value in data set [1] (Experiment A, topical 0.01%) is recorded as “+21%”; in [1] (Experiment A, topical 0.1%), 36%; in data set [1] (Experiment A, topical 1.0%), 55%; in [1] (Experiment B, topical 0.01%), 22%; in [1] (Experiment B, topical 0.1%) it was 38%; in data set [1] (Experiment B, topical 1.0%), 32%. For the same compound, the “Inhibition of corneal vascularization (significance, in words)” value in data set [1] (applied topically) is reported as “did cause significant inhibition of corneal vascularization”. Besides, the “Neodifferentiation into adipose cells (in words)” value in data set [2] was “promotes neodifferentiation”. Also, the “Effect on body weight (in words)” value in data set [3] was “Body weight was unaffected by treatment with any concentration”. Also, the Neovasc. turned out to be 21.5 ± 6.3% in data set [4] (10 mg/kg/day subcutaneous) and 17.1 ± 3.0% in data set [4] (25 mg/kg/day subcutaneous). Also, the “Degree of leukocytic infiltrate versus vehicle (in words)” value in the data set with rat corneas (24 or 96 hours post-cautery) is “no difference in the degree of leukocytic infiltrate”. Moreover, the “Corneal reepithelialization and neovascularization (in words)” value in the data set on rat corneas (24 hours after cautery) is listed as “Neither corneal reepithelialization nor neovascularization were observed”. In the data set on rat corneas (96 hours post-cautery), the “Corneal reepithelialization (in words)” value was “all corneas were reepithelialized”. The “Neovascularization (histological)” value with rat corneas (96 hours post-cautery) amounted to 0.6±0.6. In the data set on rat corneas (96 hours post-cautery), the “Neovascularization versus vehicle (in words)” value is on record as “marked reduction in neovascularization”. Besides, the “Growth inhibition of Dunning R3327 (PAP) (in words)” value in [5] is “inhibits growth of the Dunning R3327 (PAP) prostatic adenocarcinoma”.
Regarding `C[C@]12C=CC(=O)C=C1CC[C@@H]1[C@@H]2[C@@H](O)C[C@@]2(C)[C@H]1CC[C@]2(O)C(=O)NCc1ccccc1` [benzylamide derivative, prednienic acid benzylamide], the “Inhibition of MCF-7 breast cancer (in words)” value with MCF-7 breast cancer was “inhibits MCF-7 breast cancer”.

The values are drawn from US5646136A, “Methods of inhibiting angiogenesis and tumor growth, and treating ophthalmologic conditions with angiostatic and therapeutic steroids” (Duke University, priority 1994, dated 1997).
